Test results: patent US11000033B2, “Ketone or oxime compound, and herbicide” (NISSAN CHEMICAL CORPORATION, priority 2014, dated 2021)

How the values were obtained:
Assay type in all cases: in vivo
beet = assay: Test Example 4: effect on crop by soil treatment (symbol f); settings: for f: beet, effect grade on crop: 320 g/ha
Method in brief: (§1)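 Crop seed is sown in spots together with several weed species in a box of sterilized diluvial soil. It is covered by about 1.5 cm of soil and kept in a greenhouse held between 25° C. and 30° C.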

Abutilon theophrasti = assay: Test Example 5: herbicidal effect by foliage application, plastic box (symbol M); settings: 320 g/ha, 3 weeks after application
Method in brief: (§2)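 Post-emergence spray; diluvial soil (sterilized), ~1.5 cm seed cover; greenhouse 25–30° C; 14-day-old plants; water-diluted emulsion at predetermined dose; visual score at 3 wk post-treatment.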

Lolium multiflorum Lam. = assay: Test Example 4: herbicidal effect by soil treatment (symbol K); settings: for K: Lolium multiflorum Lam., herbicidal effect grade: 320 g/ha
Method in brief: (§3)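 Seeds were sown in sterilized diluvial soil, covered with about 1.5 cm of soil, and the soil surface was sprayed with a water-diluted emulsion of the compound at a predetermined rate. Plants grew in a greenhouse at 25° C. to 30° C.; effects were scored visually 3 weeks after application.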

[1] = system: Echinochloa oryzacola Vasing.; assay: Test Example 1: herbicidal activity, application before weed generation in submerged conditions (symbol A); settings: application herbicide amount 320 g/ha
Method in brief: (§4)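 In a flooded pot test with alluvial soil, the emulsion-formulated compound was diluted with water to a predetermined amount and applied to the floodwater immediately on the sowing day. Pots were held in a greenhouse at 25–30 °C for 3 weeks before each weed was rated.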

wheat [2] = assay: Test Example 4: effect on crop by soil treatment (symbol e); settings: for e: wheat, effect grade on crop: 320 g/ha
Method in brief: as §1

Chenopodium album [3] = assay: Test Example 5: herbicidal effect by foliage application, plastic box (symbol O); settings: 320 g/ha, 3 weeks after application
Method in brief: as §2

rapeseed = assay: Test Example 4: effect on crop by soil treatment (symbol g); settings: for g: rapeseed, effect grade on crop: 320 g/ha
Method in brief: as §1

rice plant = assay: Test Example 5: effect on crop by foliage application, plastic box (symbol b); settings: 320 g/ha, 3 weeks after application
Method in brief: (§5)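 Greenhouse culture at 25° C. to 30° C. followed spot-like sowing into sterilized diluvial soil, with seed covered by roughly 1.5 cm of soil.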

Chenopodium album [4] = assay: Test Example 4: herbicidal effect by soil treatment (symbol O); settings: for O: Chenopodium album, herbicidal effect grade: 320 g/ha
Method in brief: as §3

wheat [5] = assay: Test Example 5: effect on crop by foliage application, plastic box (symbol e); settings: 320 g/ha, 3 weeks after application
Method in brief: as §5

Monochoria vaginalis = assay: Test Example 1: herbicidal activity, application before weed generation in submerged conditions (symbol C); settings: application herbicide amount 320 g/ha
Method in brief: as §4

rice = assay: Test Example 4: effect on crop by soil treatment (symbol b); settings: for b: directly sowed rice plant, effect grade on crop: 320 g/ha
Method in brief: as §1

Avena fatua = assay: Test Example 5: herbicidal effect by foliage application, plastic box (symbol I); settings: 320 g/ha, 3 weeks after application
Method in brief: as §2

Galium spurium = assay: Test Example 4: herbicidal effect by soil treatment (symbol Q); settings: for Q: Galium spurium, herbicidal effect grade: 320 g/ha
Method in brief: as §3

Stellaria media = assay: Test Example 5: herbicidal effect by foliage application, plastic box (symbol P); settings: 320 g/ha, 3 weeks after application
Method in brief: as §2

Leptochloa chinensis = assay: Test Example 3: herbicidal effect by foliage application, Wagner pot (symbol D); settings: application herbicide amount 320 g/ha
Method in brief: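 Scoring took place 3 weeks after application, using fixed criteria. Plants had been raised from seed for 14 days at 25 to 30 °C in submerged alluvial soil before a diluted emulsion of the test compound was sprayed uniformly on the leaves.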

Amaranthus retroflexus = assay: Test Example 4: herbicidal effect by soil treatment (symbol N); settings: for N: Amaranthus retroflexus, herbicidal effect grade: 320 g/ha
Method in brief: as §3

Apera spica-venti = assay: Test Example 5: herbicidal effect by foliage application, plastic box (symbol L); settings: 320 g/ha, 3 weeks after application
Method in brief: as §2

[6] = application herbicide amount 320 g/ha

SMILES	f: beet, effect grade on crop (beet)	M: Abutilon theophrasti, herbicidal effect (criteria 0-5) (Abutilon theophrasti)	K: Lolium multiflorum Lam., herbicidal effect grade (Lolium multiflorum Lam.)	Herbicidal effect grade, A: Echinochloa oryzacola Vasing. [1]	e: wheat, effect grade on crop (wheat [2])	O: Chenopodium album, herbicidal effect (criteria 0-5) (Chenopodium album [3])	g: rapeseed, effect grade on crop (rapeseed)	b: directly sowed rice plant, effect on crop (criteria 0-5) (rice plant)	O: Chenopodium album, herbicidal effect grade (Chenopodium album [4])	e: wheat, effect on crop (criteria 0-5) (wheat [5])	Herbicidal effect grade, C: Monochoria vaginalis (Monochoria vaginalis)	b: directly sowed rice plant, effect grade on crop (rice)	I: Avena fatua, herbicidal effect (criteria 0-5) (Avena fatua)	Q: Galium spurium, herbicidal effect grade (Galium spurium)	P: Stellaria media, herbicidal effect (criteria 0-5) (Stellaria media)	herbicidal effect on D (Leptochloa chinensis), grade 0-5 (Leptochloa chinensis)	N: Amaranthus retroflexus, herbicidal effect grade (Amaranthus retroflexus)	L: Apera spica-venti, herbicidal effect (criteria 0-5) (Apera spica-venti)	further results
CC(CC1CC(O)=C(c2c(C)cc(C)cc2C)C1=O)=NOCc1ccc(C(F)(F)F)cc1 (stereo not drawn) [1-138]	0 (Herbicidal ratio of 5% or lower (almost no effect))	3 (Herbicidal ratio of 40% or higher and lower than 70%)	5 (Herbicidal ratio of 90% or more (almost completely withered))	5 (Herbicidal ratio of 90% or more (almost completely withered))	0 (Herbicidal ratio of 5% or lower (almost no effect))	0 (Herbicidal ratio of 5% or lower (almost no effect))	0 (Herbicidal ratio of 5% or lower (almost no effect))	5 (Herbicidal ratio of 90% or more (almost completely withered))	0 (Herbicidal ratio of 5% or lower (almost no effect))	3 (Herbicidal ratio of 40% or higher and lower than 70%)	5 (Herbicidal ratio of 90% or more (almost completely withered))	5 (Herbicidal ratio of 90% or more (almost completely withered))	5 (Herbicidal ratio of 90% or more (almost completely withered))	0 (Herbicidal ratio of 5% or lower (almost no effect))	1 (Herbicidal ratio of 5% or higher and lower than 20%)	2 (Herbicidal ratio of 20% or higher and lower than 40%)	0 (Herbicidal ratio of 5% or lower (almost no effect))	5 (Herbicidal ratio of 90% or more (almost completely withered))	
CON=C(CC1CC(O)=C(c2c(C)cc(-c3ccccc3)cc2C)C1=O)C1CC1 (mixture of isomers) [9-028]																			Effect on crop grade, f: beet (beet; [6]): 0 (Herbicidal ratio of 5% or lower (almost no effect)); M: Abutilon theophrasti, herbicidal effect grade (Abutilon theophrasti): 1 (Herbicidal ratio of 5% or higher and lower than 20%); Herbicidal effect grade, K: Lolium multiflorum Lam. (Lolium multiflorum Lam.; [6]): 5 (Herbicidal ratio of 90% or more (almost completely withered)); A (Echinochloa oryzacola Vasing.) herbicidal effect grade [1]: 5 (Herbicidal ratio of 90% or more (almost completely withered)); Effect on crop grade, e: wheat (wheat [2]; [6]): 3 (Herbicidal ratio of 40% or higher and lower than 70%); O: Chenopodium album, herbicidal effect grade (Chenopodium album [3]): 2 (Herbicidal ratio of 20% or higher and lower than 40%); Effect on crop grade, g: rapeseed (rapeseed; [6]): 4 (Herbicidal ratio of 70% or higher and lower than 90%); b: directly sowed rice plant, effect on crop grade (rice plant): 5 (Herbicidal ratio of 90% or more (almost completely withered)); Herbicidal effect grade, O: Chenopodium album (Chenopodium album [4]; [6]): 0 (Herbicidal ratio of 5% or lower (almost no effect)); e: wheat, effect on crop grade (wheat [5]): 4 (Herbicidal ratio of 70% or higher and lower than 90%); C (Monochoria vaginalis) herbicidal effect grade (Monochoria vaginalis): 5 (Herbicidal ratio of 90% or more (almost completely withered)); Effect on crop grade, b: directly sowed rice plant (rice; [6]): 3 (Herbicidal ratio of 40% or higher and lower than 70%); I: Avena fatua, herbicidal effect grade (Avena fatua): 4 (Herbicidal ratio of 70% or higher and lower than 90%); Herbicidal effect grade, Q: Galium spurium (Galium spurium; [6]): 0 (Herbicidal ratio of 5% or lower (almost no effect)); P: Stellaria media, herbicidal effect grade (Stellaria media): 3 (Herbicidal ratio of 40% or higher and lower than 70%); D (Leptochloa chinensis) herbicidal effect grade (Leptochloa chinensis; Table 24): 5 (Herbicidal ratio of 90% or more (almost completely withered)); Herbicidal effect grade, N: Amaranthus retroflexus (Amaranthus retroflexus; [6]): 0 (Herbicidal ratio of 5% or lower (almost no effect)); L: Apera spica-venti, herbicidal effect grade (Apera spica-venti): 5 (Herbicidal ratio of 90% or more (almost completely withered))
CCC(Oc1ccc2ncc(Br)cc2c1)C(=O)OC1=C(c2c(C)cc(C)cc2C)C(=O)C(CC(C)=NOC)C1 (stereo not drawn) [1-140]	0 (Herbicidal ratio of 5% or lower (almost no effect))	4 (Herbicidal ratio of 70% or higher and lower than 90%)	5 (Herbicidal ratio of 90% or more (almost completely withered))	5 (Herbicidal ratio of 90% or more (almost completely withered))	5 (Herbicidal ratio of 90% or more (almost completely withered))	2 (Herbicidal ratio of 20% or higher and lower than 40%)	4 (Herbicidal ratio of 70% or higher and lower than 90%)	5 (Herbicidal ratio of 90% or more (almost completely withered))	0 (Herbicidal ratio of 5% or lower (almost no effect))	5 (Herbicidal ratio of 90% or more (almost completely withered))	1 (Herbicidal ratio of 5% or higher and lower than 20%)	5 (Herbicidal ratio of 90% or more (almost completely withered))	5 (Herbicidal ratio of 90% or more (almost completely withered))	0 (Herbicidal ratio of 5% or lower (almost no effect))	3 (Herbicidal ratio of 40% or higher and lower than 70%)	5 (Herbicidal ratio of 90% or more (almost completely withered))	5 (Herbicidal ratio of 90% or more (almost completely withered))	5 (Herbicidal ratio of 90% or more (almost completely withered))	
CC(CC1CC(O)=C(c2c(C)cc(C)cc2C)C1=O)=NOCc1ccc(F)cc1 (stereo not drawn) [1-136]	0 (Herbicidal ratio of 5% or lower (almost no effect))	3 (Herbicidal ratio of 40% or higher and lower than 70%)	5 (Herbicidal ratio of 90% or more (almost completely withered))	5 (Herbicidal ratio of 90% or more (almost completely withered))	3 (Herbicidal ratio of 40% or higher and lower than 70%)	0 (Herbicidal ratio of 5% or lower (almost no effect))	3 (Herbicidal ratio of 40% or higher and lower than 70%)	5 (Herbicidal ratio of 90% or more (almost completely withered))	0 (Herbicidal ratio of 5% or lower (almost no effect))	3 (Herbicidal ratio of 40% or higher and lower than 70%)	5 (Herbicidal ratio of 90% or more (almost completely withered))	2 (Herbicidal ratio of 20% or higher and lower than 40%)	4 (Herbicidal ratio of 70% or higher and lower than 90%)	0 (Herbicidal ratio of 5% or lower (almost no effect))	1 (Herbicidal ratio of 5% or higher and lower than 20%)	2 (Herbicidal ratio of 20% or higher and lower than 40%)	0 (Herbicidal ratio of 5% or lower (almost no effect))	5 (Herbicidal ratio of 90% or more (almost completely withered))	
